Test: Urinary excretion study in rats after oral NS, SF or CNS (LC–MS/MS)
Format: in vivo
Conditions: for concentration at 2 h / concentration at 4 h / concentration at 8 h / concentration at 12 h / concentration at 24 h / concentration at 36 h / concentration at 48 h / concentration at 72 h / concentration at 96 h / concentration at 120 h / concentration at 6 h: male, Sprague Dawley, rat, urine, oral; for Accumulative excretion amount / Accumulative excretion percentage / Excretion amount: rat urine
Protocol: The animal room was set at constant temperature of 20 ± 2 °C with humidity of 50 ± 20% and 12/12 h light/dark cycle.
Eighteen male rats were fasted for 12 h before starting the experiment. The rats were divided into three groups at random (n = 6) and received NS (60 mg/kg), SF (50 mg/kg), and NS (60 mg/kg) + SF (50 mg/kg), respectively, by oral gavage. The rats were placed in separate metabolic cages. The urine samples were collected at 0–2, 2–4, 4–6, 6–8, 8–12, 12–24, 24–36, 36–48, 48–72, 72–96, and 96–120 h. The feces samples were collected at 0–4, 4–8, 8–12, 12–24, 24–36, 36–48, 48–72, 72–96, and 96–120 h. The urine volume was recorded and the dry feces were measured for each collection period. Samples were stored at −80 °C until analysis.
An aliquot of 200 μL urine sample was mixed with 10 μL of IS and evaporated to dryness with a ZLS-2 vacuum centrifugal concentrator (Herexi Co., Ltd., Changsha, Hunan, China). The residue was reconstituted in 100 μL of 50% methanol vortexed for 2 min and centrifuged at 12,000 rpm for 15 min. Finally, a 1 μL aliquot was injected for LC–MS analysis.
Ultra fast liquid chromatography (UFLC) analysis was performed using a Shimadzu UFLC system (DGU-20A3R Degasser; LC-20AD pump; SIL-20AXR Autosampler; CTO-20AC Column Oven) (Nakagyo-Ku, Koyoto, Japan). […] Because of the different endogenous substances in the urine and feces samples, different elution gradients were used to alleviate the matrix effects for the analytes.
The mass spectrometric detection was performed on an ABSciex 4500 Qtrap mass spectrometer (ABSciex, Foster City, CA, USA) equipped with a negative electrospray ionization (ESI) interface using multiple reaction monitoring (MRM). The MS parameters were optimized under the selected ion monitoring conditions as follows: curtain gas, 35 psi; ionspray voltage, 4500 V; turbo gas temperature, 450 °C; GS1, 45 psi; GS2, 45 psi. All data were acquired and analyzed by Analyst software (Versions 1.6.2) from ABSciex.
The accumulative excretion percentage was calculated for each analyte as follows. Excretion at time (t) = [concentration of the analyte (ng/mL) at t] × total urine (or feces) volume (mL) at t. The cumulative excretion up to time t (mg) was expressed as a percent (%) cumulative excretion by dividing by the total amount of the analyte ingested (mg): % Cumulative Excretion = 100 × (Σt excretiont) total ingested.

## CC(C)=CCC[C@](C)(O[C@@H]1O[C@H](CO[C@@H]2O[C@H](CO)[C@@H](O)[C@H](O)[C@H]2O)[C@@H](O)[C@H](O)[C@H]1O)[C@H]1CC[C@]2(C)[C@@H]1[C@H](O)C[C@@H]1[C@@]3(C)CC[C@H](O[C@@H]4O[C@H](CO)[C@@H](O)[C@H](O)[C@H]4O[C@@H]4O[C@H](CO)[C@@H](O)[C@H](O)[C@H]4O)C(C)(C)[C@@H]3CC[C@]12C [ginsenoside Rb1]
60 mg/kg, oral NS 60 mg/kg, 2 h
  concentration at 2 h: 115 ± 284 ng/mL
60 mg/kg, oral NS 60 mg/kg, 4 h
  concentration at 4 h: 245 ± 450 ng/mL
60 mg/kg, oral NS 60 mg/kg, 8 h
  concentration at 8 h: 140 ± 196 ng/mL
60 mg/kg, oral NS 60 mg/kg, 12 h
  concentration at 12 h: 214 ± 344 ng/mL
60 mg/kg, oral NS 60 mg/kg, 24 h
  concentration at 24 h: 240 ± 553 ng/mL
60 mg/kg, oral NS 60 mg/kg, 36 h
  concentration at 36 h: 61 ± 54 ng/mL
60 mg/kg, oral NS 60 mg/kg, 48 h
  concentration at 48 h: 142 ± 344 ng/mL
60 mg/kg, oral NS 60 mg/kg, 72 h
  concentration at 72 h: 84 ± 195 ng/mL
60 mg/kg, oral NS 60 mg/kg, 96 h
  concentration at 96 h: 45 ± 104 ng/mL
60 mg/kg, oral NS 60 mg/kg, 120 h
  concentration at 120 h: 25 ± 62 ng/mL
Oral CNS 110 mg/kg, 2 h
  concentration at 2 h: 54 ± 73 ng/mL
  Accumulative excretion amount: 0.075 ± 0.093 µg
  Accumulative excretion percentage: 0.002±0.002%
  Excretion amount: 0.075 ± 0.093 µg
Oral CNS 110 mg/kg, 4 h
  concentration at 4 h: 27 ± 41 ng/mL
  Accumulative excretion amount: 0.106 ± 0.086 µg
  Accumulative excretion percentage: 0.003±0.002%
  Excretion amount: 0.044 ± 0.050 µg
Oral CNS 110 mg/kg, 6 h
  concentration at 6 h: 111 ± 121 ng/mL
  Accumulative excretion amount: 0.218 ± 0.166 µg
  Accumulative excretion percentage: 0.006±0.004%
  Excretion amount: 0.158 ± 0.142 µg
Oral CNS 110 mg/kg, 8 h
  concentration at 8 h: 105 ± 100 ng/mL
  Accumulative excretion amount: 0.339 ± 0.213 µg
  Accumulative excretion percentage: 0.009±0.006%
  Excretion amount: 0.212 ± 0.169 µg
Oral CNS 110 mg/kg, 12 h
  concentration at 12 h: 120 ± 134 ng/mL
  Accumulative excretion amount: 0.472 ± 0.310 µg
  Accumulative excretion percentage: 0.013±0.008%
  Excretion amount: 0.154 ± 0.128 µg
Oral CNS 110 mg/kg, 24 h
  concentration at 24 h: 72 ± 50 ng/mL
  Accumulative excretion amount: 0.859 ± 0.527 µg
  Accumulative excretion percentage: 0.023±0.014%
  Excretion amount: 0.388 ± 0.391 µg
Oral CNS 110 mg/kg, 36 h
  concentration at 36 h: 138 ± 144 ng/mL
  Accumulative excretion amount: 1.056 ± 0.587 µg
  Accumulative excretion percentage: 0.028±0.016%
  Excretion amount: 0.197 ± 0.129 µg
Oral CNS 110 mg/kg, 48 h
  concentration at 48 h: 51 ± 60 ng/mL
  Accumulative excretion amount: 1.303 ± 0.684 µg
  Accumulative excretion percentage: 0.035±0.018%
  Excretion amount: 0.247 ± 0.216 µg
Oral CNS 110 mg/kg, 72 h
  concentration at 72 h: 33 ± 28 ng/mL
  Accumulative excretion amount: 1.373 ± 0.705 µg
  Accumulative excretion percentage: 0.037±0.019%
  Excretion amount: 0.070 ± 0.060 µg
Oral CNS 110 mg/kg, 96 h
  concentration at 96 h: 19 ± 14 ng/mL
  Accumulative excretion amount: 1.414 ± 0.715 µg
  Accumulative excretion percentage: 0.038±0.019%
  Excretion amount: 0.040 ± 0.031 µg
Oral CNS 110 mg/kg, 120 h
  concentration at 120 h: 14 ± 12 ng/mL
  Accumulative excretion amount: 1.436 ± 0.726 µg
  Accumulative excretion percentage: 0.038±0.019%
  Excretion amount: 0.022 ± 0.025 µg
Oral NS 60 mg/kg, 6 h
  concentration at 6 h: 140 ± 244 ng/mL
  Accumulative excretion amount: 0.798 ± 1.077 µg
  Accumulative excretion percentage: 0.019±0.025%
  Excretion amount: 0.262 ± 0.207 µg
Oral NS 60 mg/kg, 2 h
  Accumulative excretion amount: 0.075 ± 0.063 µg
  Accumulative excretion percentage: 0.002±0.001%
  Excretion amount: 0.075 ± 0.063 µg
Oral NS 60 mg/kg, 4 h
  Accumulative excretion amount: 0.574 ± 1.167 µg
  Accumulative excretion percentage: 0.013±0.027%
  Excretion amount: 0.872 ± 1.518 µg
Oral NS 60 mg/kg, 8 h
  Accumulative excretion amount: 0.863 ± 1.044 µg
  Accumulative excretion percentage: 0.021±0.025%
  Excretion amount: 0.152 ± 0.084 µg
Oral NS 60 mg/kg, 12 h
  Accumulative excretion amount: 1.139 ± 1.140 µg
  Accumulative excretion percentage: 0.027±0.027%
  Excretion amount: 0.276 ± 0.142 µg
Oral NS 60 mg/kg, 24 h
  Accumulative excretion amount: 1.881 ± 1.352 µg
  Accumulative excretion percentage: 0.044±0.032%
  Excretion amount: 0.742 ± 0.289 µg
Oral NS 60 mg/kg, 36 h
  Accumulative excretion amount: 2.275 ± 1.435 µg
  Accumulative excretion percentage: 0.053±0.033%
  Excretion amount: 0.394 ± 0.221 µg
Oral NS 60 mg/kg, 48 h
  Accumulative excretion amount: 2.476 ± 1.415 µg
  Accumulative excretion percentage: 0.058±0.033%
  Excretion amount: 0.201 ± 0.117 µg
Oral NS 60 mg/kg, 72 h
  Accumulative excretion amount: 2.506 ± 1.429 µg
  Accumulative excretion percentage: 0.058±0.033%
  Excretion amount: 0.030 ± 0.020 µg
Oral NS 60 mg/kg, 96 h
  Accumulative excretion amount: 2.521 ± 1.438 µg
  Accumulative excretion percentage: 0.060±0.034%
  Excretion amount: 0.016 ± 0.011 µg
Oral NS 60 mg/kg, 120 h
  Accumulative excretion amount: 2.528 ± 1.439 µg
  Accumulative excretion percentage: 0.060±0.034%
  Excretion amount: 0.006 ± 0.003 µg

Source: article PMC6321168, “Comparative Study on Excretive Characterization of Main Components in Herb Pair Notoginseng-Safflower and Single Herbs by LC–MS/MS” (Pharmaceutics, 2018)
